Article PMC9270351, “Conjugates of urolithin A with NSAIDs, their stability, cytotoxicity, and anti-inflammatory potential” (Scientific Reports, 2022)

Columns and labels:
THP-1 monocytes = test: PI flow cytometric assay, cell viability; assay type: cell-based, human; conditions: 24-h incubation
Description: THP-1 monocytes were seeded in 24-well plates at a density of 400,000. Selected UADs (2–50 µM), control (0.25% DMSO in PBS), UA (50 µM) and parthenolide (25 µM) as a control were added to THP-1 monocytes and left for 24-h incubation at 37 °C under humidified 5% CO2 in the culture medium containing RPMI 1640 without phenol red supplemented with 10% FBS and 2 mM glutamine. After that time, cell suspensions were transferred to Eppendorf tubes, centrifuged, stained with propidium iodide (PI) and analyzed using FACS (MACSQuant® Analyze, Miltenyi Biotec, Bergisch Gladbach, Germany). The cell viability was reported as the percentage of PI(−) cells.

[1] = test system: IL-6 secretion in LPS-stimulated THP-1 derived macrophages; test: IL-6 secretion of LPS-stimulated macrophages (ELISA); assay type: cell-based, human; conditions: 1 h treatment, then LPS 24 h
Description: (§1) THP-1 human monocytic cells (DSMZ, Braunschweig, Germany) were studied between passages 4 and 19. Monocytes were differentiated into THP-1 derived macrophages according to modified, previously described protocol. THP-1 monocytes were seeded in 24-well plates at a density of 400,000 cells per well. Cells were incubated at 37 °C under humidified 5% CO2 in the culture medium containing RPMI 1640 without phenol red supplemented with 10% FBS and 2 mM glutamine. In order to differentiate THP-1 monocytes into macrophages, cells were treated with 25 ng/mL PMA followed by 48 h incubation, medium change and an additional 24 h resting. Selected UADs were added to THP-1 derived macrophages at concentrations 2–50 µM and left for 1-h resting. Next, cells were treated with 10 ng/ml LPS. Successful differentiation was confirmed by the presence of distinguishing macrophage markers such as: cell adherence, changes in morphology and response to bacterial LPS stimulation and, consequently, TNF-α secretion.
(§2) After treatment with the test compounds for 1 h and subsequent stimulation with LPS for 3 h (for TNF-α secretion measurements) or 24 h (for IL-10 and IL-6 secretion measurements) supernatants were collected. The secretion of cytokines levels was measured by ELISA kits according to the manufacturer’s instruction (Human TNF-α, Human IL-10 and Human IL-6 ELISA kits, BD Biosciences, Franklin Lakes, NJ, USA). […]

[2] = test system: IL-10 secretion in LPS-stimulated THP-1 derived macrophages; test: IL-10 secretion of LPS-stimulated macrophages (ELISA); assay type: cell-based, human; conditions: over tested concentrations; 1 h treatment, then LPS 24 h
Description: as §1, §2

[3] = test system: THP-1 derived macrophages; test: MTT assay, cell viability; assay type: cell-based, human; conditions: tested concentration range 2–50 µM; 1 h treatment, then LPS for 3 or 24 h
Description: as §1, with “Successful differentiation was confirmed by the presence of distinguishing macrophage markers such as: cell adherence, changes in morphology and response to bacterial LPS stimulation and, consequently, TNF-α secretion.” left out
THP-1 monocytes were seeded in 24-well plates at a density of 400,000 cells per well and differentiated into THP-1 derived macrophages according to the method described above. […] After medium removal, crystals were dissolved in 400 µL DMSO, 200 µL of solution was transferred to 96-well plate and the absorbance of the solution was measured at λ = 570 nm with the correction to 630 nm using a microplate reader. […]

[4] = test system: TNF-α secretion in LPS-stimulated THP-1 derived macrophages; test: TNF-α secretion of LPS-stimulated macrophages (ELISA); assay type: cell-based, human; conditions: over tested concentrations; 1 h treatment, then LPS 3 h
Description: as §1, §2

## COc1ccc2c(c1)c(=O)oc1cc(OC(=O)C(C)c3ccc(CC(C)C)cc3)ccc12 (stereo not shown) [Mix 7, 8-methoxy-6-oxo-6H-benzo[c]chromen-3-yl 2-(4-isobutylphenyl)propanoate]
other
  melting point: 114.4 to 115.7 °C

## COc1ccc2c(c1)c(=O)oc1cc(OC(=O)c3ccccc3Nc3cccc(C)c3C)ccc12 [Mix 8, 8-methoxy-6-oxo-6H-benzo[c]chromen-3-yl 2-((2,3-dimethylphenyl)amino)benzoate]
other
  melting point: 186.7 to 189.2 °C

## COc1ccc2c(c1)c(=O)oc1cc(OC(=O)Cc3ccccc3Nc3c(Cl)cccc3Cl)ccc12 [Mix 9, 8-methoxy-6-oxo-6H-benzo[c]chromen-3-yl 2-(2-((2,6-dichlorophenyl)amino)phenyl)acetate]
other
  melting point: 207.3 to 208.5 °C

## COc1ccc2c(c1)c(=O)oc1cc(OC(=O)c3ccccc3OC(C)=O)ccc12 [Mix 10, 8-methoxy-6-oxo-6H-benzo[c]chromen-3-yl 2-acetoxybenzoate]
other
  melting point: 192.6 to 193.5 °C

## O=c1oc2cc(O)ccc2c2ccc(O)cc12 [UA, 3,8-dihydroxy-6H-benzo[c]chromen-6-one]
THP-1 monocytes; 50 µM
  Cell viability (PI-stained cells, flow cytometry): Slight, yet statistically significant decline in monocytes viability
[1]; 50 µM
  Effect on IL-6 secretion: inhibited secretion of IL-6
[2]
  Effect on IL-10 secretion: did not significantly affect IL-10 secretion
[3]
  Cell viability / cytotoxic effect (MTT): no cytotoxic effect was observed
[4]
  Effect on TNF-α secretion: inhibitory effect on TNF-α secretion in a dose-dependent manner

## Cc1cccc(Nc2ccccc2C(=O)O)c1C [mefenamic acid]
[1]; over tested concentrations
  Effect on IL-6 secretion: increased IL-6 production in a dose-dependent manner
[2]
  Effect on IL-10 secretion: did not influence IL-10 secretion
[4]
  Effect on TNF-α secretion: stimulating effect

## C=C1C(=O)O[C@H]2[C@H]1CC/C(C)=C/CC[C@@]1(C)O[C@@H]21 [parthenolide]
THP-1 monocytes; 25 µM, positive control
  Cell viability (PI-stained cells, flow cytometry): decreased THP-1 viability
